Blank lines part the entries; values can stand above or below the molecule they belong to.
How the values were obtained:
hiPSCs = assay: Cell viability of hiPSCs treated with FK866; assay type: cell-based, human; conditions: up to 72 hours
Procedure: FIG. 10 presents data regarding FK866 toxicity on human pluripotent stem cells. […] Cell viability data is presented for hiPSCs treated with FK866 for up to 72 hours. […] (B) Cell viability of human pluripotent stem cells 72 hours after treatment initiation with FK866. Cells were treated with a range of concentrations (1 nM to 10 μM) either continuously or for 24 hour pulse.
FIG. 10 presents cell viability data for hiPSCs treated with FK866 (FIG. 9B) for up to 72 hours. […] Therefore, an effective strategy for selectively eliminating pluripotent stem cells is to deplete NAD^+ levels using a NAMPT inhibitor. […] Thus, these compounds will be useful for selectively eliminating tumorigenic cells in cells prepared for transplantation, independent of whether teratoma-causing cells in differentiated cultures are pluripotent or comprise one or more differentiated phenotypes.

[1] = tested on: confluent hiPSC (DF6-9-9T); assay: Bright field imaging of cell morphology; assay type: cell-based, human; conditions: 72 hours, 2.5 μM STF-31, 30 μM WZB117, 20 μM PluriSIn
Procedure: (§1) In Vitro Toxicity Assays: Treatment with small molecules or glucose deprivation was initiated in hESC or hiPSC at 24 and 96 h post-plating and in vitro toxicity assays were performed at specified treatment endpoints 24-96 hours after treatment initiation. […] Neutral red assays for cell viability were performed as previously described. In vitro cell death was determined using SYTOX® Green nucleic acid stain (Life Technologies). Briefly, cells were incubated in 5 μM SYTOX® Green for 30 minutes at 37° C. in a humidified cell incubator with 5% CO2. Percent cell viability was determined by normalizing to replicate cells incubated with 120 μM digitonin (Sigma-Aldrich) and 5 μM SYTOX® Green. Imaging of cell viability was performed using Live/Dead® Viability/Cytotoxicity Kit, for mammalian cells (Life Technologies). Cells were stained for 20 minutes at room temperature with 4 μM Calcein AM to detect viable cells and 2 μM Ethidium Homodimer 1 to detect cells with compromised membranes. Representative images of alterations in cell morphology were acquired on confluent hPSC 24-72 hours after treatment initiation. Imaging was performed with a Nikon Ti-U inverted microscope.

hiPSC (DF6-9-9T) [2] = assay: Neutral red cell viability assay in hiPSC; assay type: cell-based, human; conditions: for elimination of hiPSC: 24 hour treatment, sub-confluent hiPSC; for toxicity: 72 hours
Procedure: Neutral red assays for cell viability were performed as previously described. In vitro cell death was determined using SYTOX® Green nucleic acid stain (Life Technologies). Briefly, cells were incubated in 5 μM SYTOX® Green for 30 minutes at 37° C. in a humidified cell incubator with 5% CO2. […] Imaging of cell viability was performed using Live/Dead® Viability/Cytotoxicity Kit, for mammalian cells (Life Technologies). Cells were stained for 20 minutes at room temperature with 4 μM Calcein AM to detect viable cells and 2 μM Ethidium Homodimer 1 to detect cells with compromised membranes. […] Imaging was performed with a Nikon Ti-U inverted microscope.

hiPSC [3] = assay: Live/dead staining (calcein AM / ethidium homodimer-1); assay type: cell-based, human; conditions: 72 hours, confluent; 2.5 μM STF-31, 30 μM WZB117, 20 μM PluriSIn
Procedure: as §1

hiPSC (DF6-9-9T) [4] = assay: SYTOX Green cell viability assay; assay type: cell-based, human; conditions: 72 hours treatment; 2.5 μM STF-31, 30 μM WZB117, 20 μM PluriSIn
Procedure: as §1

confluent hiPSC = assay: Colony formation assay (alkaline phosphatase staining); assay type: cell-based, human; conditions: 24 hour pulse, cells passaged, cultured 6 days
Procedure: The first iteration was adapted from previously described method, after 24 hours of treatment, hiPSC were detached with Accutase (StemCell Technologies), re-suspended in E8, passed though 12×75 mm tube with cell strainer cap (Falcon), and plated at 5e4 live cells per 2 cm^2. Media were changed every 48 hours and cells were cultured for six days, at which time staining for alkaline phosphatase was performed with leukocyte alkaline phosphatase kit (Sigma-Aldrich) as described and plates were visually inspected for phosphatase-positive colonies. This strategy represents the most common implementation of the colony formation assay. However, concerns regarding the cell death normally encountered during passaging prompted another approach for stricter assessment. In the second iteration, cells were treated for 24 hours, washed twice with 0.5 mL D-PBS, and media refreshed with E8. Thereafter, media were replaced daily for six days at which point staining for alkaline phosphatase activity was performed. […] Elimination of hiPSC from co-cultures with differentiated cells was performed with human fibroblasts and day 10 cardiomyocytes derived from hiPSC. hiPSC (DF6-9-9T) were plated at concentrations ranging from 100-10,000 live cells per well with human fibroblasts (1.75e5 cells) or day 10 differentiated cardiomyocytes (3.75e5 cells) in E8 and Y-27632 per 9.6 cm^2. […] Six days after plating, staining for alkaline phosphatase activity was performed. […] Imaging of wells was performed with a Sony Cyber-shot DSC-TX30 and individual colonies with a Nikon stereoscope.

sub-confluent hiPSC [5] = assay: Immunoblot analysis of p-AMPK, AMPK, cleaved caspase-3 and -9; assay type: cell-based, human
Procedure: Immunoblot Analysis: Non-adherent cells were collected by centrifugation, adherent cells were washed once with d-PBS and lysed in Laemmli buffer, combined with non-adherent cell pellet, and heated at 95° C. for 5 minutes. Protein concentration was measured using the Qubit protein assay (Life Technologies). 25 μg of total protein was separated by SDS-PAGE, transferred to nitrocellulose membrane (GE Healthcare Life Sciences) and blocked according to the manufacturer's instructions. Membranes were incubated overnight at 4° C. with the following dilutions of primary antibodies: rabbit anti-cleaved caspase-3 (1:500), rabbit anti-caspase-9 (1:1000), rabbit anti-phospho-AMPK (1:1000), and rabbit anti-AMPK (1:1,000) from Cell Signaling Technology, and mouse anti-GAPDH (1:10,000) from Life Technologies. Membranes were then incubated with secondary antibodies for 45 minutes at the following concentrations: donkey anti-mouse-horseradish peroxidase (1:5,000) and donkey anti-rabbit-horseradish peroxidase (1:7,000) from Jackson Immunoresearch Laboratories, Inc., followed by detection using enhanced chemiluminescence.

sub-confluent hiPSC [6] = assay: Glucose uptake assay ([3H]2-deoxyglucose); assay type: cell-based, human; conditions: 1 hour of treatment; 2.5 μM STF-31, 30 μM WZB117
Procedure: For 1 hour treatment, cells were placed in Krebs-Ringer Hepes (KRH) containing treatment at 37° C. in a humidified cell incubator with 5% CO2. For 15, 18, and 24 hour treatments, cells were treated in E8 medium for 14, 17, and 23 hours, respectively, at which point media was changed to KRH buffer containing specific treatment for 1 hour. After specified treatment time, glucose uptake was performed with 0.5 μCi [^3H]2-deoxyglucose for 5 min at 37° C. as previously described. Uptake data were normalized to protein concentration measured with Lowry method.

hiPSC [7] = assay: Extracellular flux analysis (ECAR, OCR); assay type: cell-based, human
Procedure: Extracellular Flux Analysis: hiPSC were plated at 6e4 cells per well on specialized microplate (Seahorse Bioscience) as previously described with several exceptions. Extracellular flux analysis was performed on hiPSC 48 hours post-plating using Seahorse Bioscience XF24 Analyzer. […] The microplate was equilibrated in non-CO2 incubator for 1.5 h, and analyzed for 16 h in Seahorse Bioscience XF24 Analyzer. Assay medium consists of basal E8 reagents with the following exceptions: basal DMEM F-12 without phenol red (Gibco), no sodium bicarbonate, and 2.5 mM GlutaMAX™ (Gibco) and 15 mM Hepes (Gibco). Assay medium was adjusted to pH 7.4 at 37° C. prior to use. Extracellular acidification rate (ECAR) and basal oxygen consumption rate (OCR) were collected approximately every 60 minutes. Treatments were normalized to baseline media control value and are represented as average of thee biological replicates.

sub-confluent hiPSC [8] = assay: Cleaved caspase-3/7 fluorescence based assay; assay type: cell-based, human; conditions: after initiation of treatment; 2.5 μM STF-31, 30 μM WZB117
[9] = tested on: PAX6 positive neural progenitor cells; assay type: cell-based; conditions: 72 hours continuous STF-31 plus exogenous NA
Description: Data expressed as mean+S.D. (n=4); p<0.05, **p<0.01, ***p<0.001. […] Data expressed as mean+S.D. (n=4), *p<0.05, **p<0.01, ***p<0.001.

[10] = sub-confluent cells, 30 μM WZB117, 20 μM PluriSIn

Compound: O=C(/C=C/c1cccnc1)NCCCCC1CCN(C(=O)c2ccccc2)CC1 [FK866]
toxicity to human pluripotent stem cells relative to STF-31 (hiPSCs): toxic to human pluripotent stem cells at lower concentrations than STF-31

Compound: O=C(NNc1ccccc1)c1ccncc1 [PluriSIn]
morphology of hiPSC [1]: minimal alterations in the morphology
elimination of hiPSC (hiPSC (DF6-9-9T) [2]; 30 μM WZB117, 20 μM PluriSIn): eliminated sub-confluent hiPSC
cell death with increasing concentrations (hiPSC (DF6-9-9T) [2]; confluent cells, 20-40 μM): did not result in cell death
toxicity (hiPSC (DF6-9-9T) [2]; confluent cells, 20 μM PluriSIn): did not induce significant toxicity
toxicity (hiPSC (DF6-9-9T) [2]; [10]): only effective on sub-confluent cells
live/dead staining (hiPSC [3]): not toxic
cell viability (SYTOX Green) (hiPSC (DF6-9-9T) [4]): no significant reduction
formation of alkaline phosphatase-positive colonies (confluent hiPSC): did not prevent colony growth

time at which cleaved caspase-3 and -9 are observed (sub-confluent hiPSC [5]; 2.5 μM STF-31, 30 μM WZB117): 12 h
time by which total levels of AMPK decreased (sub-confluent hiPSC [5]; 30 μM WZB117): ≤ 24 h
time at which p-AMPK is detected/increased (sub-confluent hiPSC [5]; post-treatment, 2.5 μM STF-31, 30 μM WZB117): 12 h
time of induction of caspase-3/7 activity (sub-confluent hiPSC [8]): 12 h
formation of alkaline phosphatase-positive colonies (confluent hiPSC): did not prevent colony growth
Compound: O=C(Oc1cccc(F)c1OC(=O)c1cccc(O)c1)c1cccc(O)c1 [WZB117]
decrease in glucose uptake (sub-confluent hiPSC [6]): 20%
morphology of hiPSC [1]: morphological changes such as cell swelling
elimination of hiPSC (hiPSC (DF6-9-9T) [2]; 30 μM WZB117, 20 μM PluriSIn): eliminated sub-confluent hiPSC
toxicity (hiPSC (DF6-9-9T) [2]; confluent cells treated 24 hours post-plating, 30 μM WZB117): toxic
toxicity (hiPSC (DF6-9-9T) [2]; confluent cells treated 96 hours post-plating, 30 μM WZB117): significantly less toxic
toxicity (hiPSC (DF6-9-9T) [2]; [10]): toxic
time before reductions in OCR (hiPSC [7]; 2.5 μM STF-31, 30 μM WZB117): ≤ 8 h
effect on ECAR (hiPSC [7]; 30 μM WZB117): decrease in ECAR by the earliest timepoint measured
live/dead staining (hiPSC [3]): not toxic
cell viability (SYTOX Green) (hiPSC (DF6-9-9T) [4]): no significant reduction

Compound: NC(=O)c1cccnc1 [nicotinamide]
rescue of STF-31 mediated toxicity (hiPSC (DF6-9-9T) [2]; 10 and 100 μM nicotinamide, data not shown): failed to rescue

Compound: O=C(O)c1cccnc1 [nicotinic acid]
rescue of cell death caused by STF-31 [9]: can be rescued
